# Assay results from US7914769B2, “Compounds for treating human papillomavirus” (priority 2004, dated 2011).
# What was measured:
# [1] = target: HPV E6 protein (Human papillomavirus type 16, UniProt P03126); experiment: In vitro p53 degradation assay (E6 and p53 made in rabbit reticulocyte lysate)
# [2] = target: E6 (Human papillomavirus type 16, UniProt P03126); experiment: E6 inhibition (IC50, assay not specified); format: biochemical
# Text: In some embodiments, the interaction of a compound described herein with E6 protein can be assayed in vitro, using routine techniques. In some in vitro assays, the ability of a compound described herein to inhibit the binding of E6 protein to an E6 binding protein can be tested. For example, the E6 protein can be labeled, e.g., radiolabeled, mixed with a compound described herein, and the binding of E6 protein to a binding protein, e.g., E6BP or E6AP, can be determined. Binding efficiency can be calculated as percent input bound minus background. Other in vitro assays can involve indirect measurements of the ability of a compound described herein to inhibit the binding of E6 protein to an E6 binding protein. For example, in vitro p53 degradation experiments can be performed, e.g., as described by Crook et al. (Cell, 67:547-556 (1991)). The IC50 for binding and p53 degradation for the compounds described herein can be tabulated using routine methods.
# “IC50” as used herein is the concentration of a compound that produces half-maximal inhibition of protein activity, e.g., E6 activity.
# Chain of HPV E6 protein (P03126 whole entry): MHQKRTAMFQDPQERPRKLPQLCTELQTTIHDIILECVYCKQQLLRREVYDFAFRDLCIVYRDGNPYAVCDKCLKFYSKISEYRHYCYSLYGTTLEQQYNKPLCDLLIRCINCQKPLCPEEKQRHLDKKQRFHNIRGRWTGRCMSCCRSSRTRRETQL
# Chain of E6 (P03126 whole entry): as above
smiles,measurement,setting,value
CCN(C(=O)c1cc2ccccc2cc1O)c1ccccc1,IC50,[1],1000 to 2000 nM
same,IC50,[2],100 to 200 nM
